Legend:
MCF7 cells [1] = assay: Senescence-associated beta-galactosidase (SA-β-Gal) assay; type: cell-based, human; settings: 50 nM, 7 days after IR
Method: MCF7, Saos-2, or CT26 cells were seeded at 3×10^4 per well in 6-well plates and allowed to attach to plate overnight. […] Then MCF7 and Saos-2 cells were irradiated with 0 or 6 Gy and CT26 cells with 0 or 10 Gy. After IR, MCF7 and Saos-2 cells were continuously cultured for 7 days and CT26 for 5 days, then fixed in 2% PFA and stained with staining buffer (1 mg/ml X-Gal (Golden Bio), 40 mM citric acid/sodium phosphate, 150 mM NaCl, 2 mM MgCl2, 3.3 mM K3[Fe(CN)6], 3.3 mM K4[Fe(CN)6], pH=6) for 16 h at 37° C., then washed with warm PBS three times and imaged in PBS within a week. Images were captured on a Zeiss Axiovert 200M microscope with a 20× Plan-NeoFluar objective and Axiocam digital camera. SA-β-Gal-positive and -negative cells were counted in more than 5 fields, yielding an average percentage indicated on each SA-β-Gal image as mean±SD. Three replicates were performed.

Saos-2 cells = assay: Clonogenic survival after irradiation (radiosensitivity); type: cell-based, human; settings: NU-1 1 μM
Method: (§1) To assess radiosensitivity, MCF7, Saos-2, or CT26 cells were seeded in 6-well plates at 100 cells per well in triplicate, allowed to attach overnight and treated with DMSO or TERT inhibitors at subtoxic concentrations for 1 h prior to IR. MCF7 cells were treated with 0.5 μM NU-1, 10 μM BIBR 1532, or 1 μM MST-312, Saos-2 cells with 1 μM NU-1 or 20 μM BIBR 1532 and CT26 cells with 1 μM NU-1, 20 μM BIBR 1532 or 2 μM MST-312. Doses of 0, 1, 2, 3, 4, or 5 Gy were applied using a GammaCell ^60Co γ-ray source (Nordion) at a dose rate of 7.09 cGy/sec. After that MCF7 and Saos-2 cells were cultured for 3 weeks and CT26 for 2 weeks, then fixed and stained with crystal violet. Colonies of at least 50 cells were counted. Data from three independent biological replicates were acquired. The surviving fraction (SF) was calculated using the following formula: […]

MCF7 cells [2] = assay: as above; type: cell-based, human; settings: NU-1 0.5 μM
Method: as §1

MCF7 cells [3] = settings: cited from earlier work
A549 cells = settings: cited from earlier work
CT26 cells = assay: Clonogenic survival after irradiation (radiosensitivity); type: cell-based, mouse
Method: as §1

CT26 subcutaneous tumors = assay: Subcutaneous CT26 tumor growth, NU-1 with or without 10 Gy; type: in vivo, BALB/c mice
Method: For tumor inoculation, 7-9 week BALB/c mice or NSG mice were subcutaneously injected in the flank with 0.5×10^6 CT26 cells in 100 μL PBS. On Day 9 (tumor average volume ˜30 mm^3), the tumor bearing BALB/c mice were randomly divided into 4 groups of 8, while the NSG mice were randomly divided into 2 groups of 5-6. For NU-1 treatment, 10 mg/kg of NU-1 in 100 μL PBS was injected intraperitoneally once on each of the 2 days before, the day of and 2 days after irradiation. Mouse weight was measured before treatment. Tumor irradiation was conducted on Day 11 using a RadSource RS-2000 X-Ray generator operating at 160 kV and 25 mA at 10 Gy, calibrated by NIST traceable dosimetry. From Day 7 after tumor inoculation, tumors were measured by calipers every 2-3 days and volume calculated using the formula: Tumor volume (mm^3)=length (mm)×width (mm)×width (mm)[…]. On Day 18 after tumor inoculation, tumors from 3 mice under each treatment condition were collected for histology analysis. The rest of the mice were continuously maintained and recorded until at least Day 28 or reaching the humane endpoint for tumor volume. No animals that formed tumors after injection with CT26 cells were excluded from any studies reported here.
CT26 tumors were collected 5 days after treatment (Day 18 after tumor inoculation) and fixed in 10% neutral formalin for 24 h. Formaldehyde-fixed paraffin-embedded (FFPE) tumors were sectioned and stained with hematoxylin and eosin (H&E) by the Human Tissue Resource Center at The University of Chicago. To perform immunofluorescence analysis, tumor sections were deparaffinized in xylene for 10 min, then rehydrated with 95%, 70%, 50%, and 0% ethanol for 5 min each. After that, the tumor section was immersed in 10 mM sodium citrate buffer (pH 6.0) for 30 min at 90° C. for antigen retrieval. Then the tumor sections were blocked in 5% BSA-TBS, stained with anti-Ki67 (1:1000), anti-γH2AX (1:500), anti-CD45 (1:500), anti-CD11c (1:250), anti-CD8 (1:250), anti-granzyme B (1:250) and anti-PD-L1 primary antibodies diluted in 5% BSA-TBS at 4° C. overnight. Followed by washing with TBST, tumor sections were stained with fluorophore-conjugated secondary antibodies (1:2000, Vector Labs) and DAPI (1 μg/mL) diluted in 5% BSA-TBS for 90 min at room temperature. The H&E stained tissue sections were scanned using an Olympus VS200 SlideView Whole Slide Scanner. The fluorescent tumor sections were imaged using a 3i Marianas Spinning Disk Confocal with a 20× objective and pseudo-colored using Fiji. Detailed primary antibody information is provided in Key resources table.

[4] = IR + NU-1, tumors removed on Day 18

## C=C1C(=O)[C@](C)(C(=O)OC)[C@H](CCc2cn(Cc3ccc(F)cc3F)nn2)O[C@@H]1C [NU-1]
MCF7 cells [1]
  Enhancement of senescence after IR at low concentration: sufficient to enhance senescence after IR
Saos-2 cells; Saos-2 (telomerase negative), BIBR 20 μM
  Radiosensitization in clonogenic survival assay: Neither NU-1 nor BIBR displayed radiosensitization
Saos-2 cells; Saos-2 cells, BIBR 1532 20 μM for 1 h prior to IR, 2 Gy
  Mean SF2 (surviving fraction at 2 Gy): 0.583
MCF7 cells [2]; MCF7, BIBR 10 μM, MST 1 μM, IR 0-5 Gy
  Radiosensitization in clonogenic survival assay: strongest effects
MCF7 cells [2]; MCF7 cells, BIBR 1532 10 μM, MST-312 1 μM for 1 h prior to IR, 2 Gy
  Mean SF2 (surviving fraction at 2 Gy): 0.116
MCF7 cells [3]
  LD50: 21 µM
A549 cells
  LD50: 35 µM
CT26 cells; CT26, non-toxic doses
  Sensitization of CT26 cells to radiation: sensitized CT26 cells to radiation
CT26 cells; CT26 cells, NU-1 1 μM, BIBR 1532 20 μM, MST-312 2 μM for 1 h prior to IR, 2 Gy
  Mean SF2 (surviving fraction at 2 Gy): 0.322
CT26 subcutaneous tumors; 10 mg/kg IP daily Days 9 to 13, no IR
  Effect on tumor growth, NU-1 alone: no appreciable effect
CT26 subcutaneous tumors; IR (10 Gy, Day 11) + NU-1 10 mg/kg IP Days 9 to 13
  Tumors eliminated within two weeks after treatment: 7 of 8
CT26 subcutaneous tumors; IR + NU-1, Day 18 tumor sections
  Tumor immune infiltration: markedly higher tumor immune infiltration
CT26 subcutaneous tumors; IR + NU-1, followed 54 days
  Tumor recurrence after clearance: did not recur
CT26 subcutaneous tumors; [4]
  Ki-67 expression in tumors vs IR alone: lower expression of proliferation marker Ki-67
  Persistent γH2AX in tumors vs IR alone: upregulation of persistent γH2AX
CT26 subcutaneous tumors; IR + NU-1 vs IR alone
  PD-L1 in tumors: less increase in PD-L1

Source: patent US12440476B2, “Agents that target telomerase reverse transcriptase (TERT) for treating cancer and sensitizing cancer cells to genotoxic therapy” (Northwestern University, priority 2022, dated 2025)
